# Results: patent US12390467B2, “Necroptosis inducers or autophagy inhibitors or a combination thereof” (The University of Toledo, priority 2018, dated 2025)
# Tests used:
# Assay type in all cases: cell-based
# [1] = test system: Bak, Bax, Bcl-2, caspases, PARP, cytochrome c in BT-20 cells; test: Western blot, apoptotic proteins
# Method: The TNBC cells were seeded in a culture flask and incubated for 24 h. The cells were then incubated with different concentrations of the lead compounds and re-incubated for an additional 12 or 24 h. […] The bicinchoninic acid (BCA) was used to determine protein concentration in the cell extracts (G-BIOSCIENCES, St. Louis, MO, USA). […] The membrane was blocked using 5% milk in Tris-buffered Tween 20 saline for 30 minutes. The membrane was then incubated overnight with primary antibodies against Bak, Bax, Bcl-2, caspase9, caspase 3, caspase 7, PARP, cytochrome c, N-cadherin, E-cadherin, c-Myc, dishevelled segment polarity protein 3 (DVL3), dishevelled segment polarity protein 2 (DVL2), Vimentin, mitogen-activated protein kinase kinase (MAPKK also known as MEK1/2), β-catenin, low-density lipoprotein receptor-related protein 6 (LRP6), receptor-interacting protein kinase (RIP), phosphorylated RIP (p-RIP), mixed lineage kinase domain like pseudokinase(MLKL), Caspase 8, light chain 3 (LC3), lysosomal-associated membrane protein 1 (LAMP1), unc-51 like autophagy activating kinase 1 (ULK1), ras associated protein 7 (Rab7), ras associated protein 5 (Rab5), Beclin 1, mechanistic target of rapamycin (mTOR), tumor necrosis factor alpha (TNF-α), tumor necrosis factor receptor 1 (TNFR1), tumor necrosis factor receptor 2 (TNFR2), Fas-associated protein with death domain (FADD), Fas ligand (Fas), TNF-related apoptosis-inducing ligand (TRAIL), death receptor 5 (DR5), Tumor necrosis factor receptor type 1-associated DEATH domain (TRADD), receptor-interacting protein kinase 3 (RIP3), β-actin or GAPDH in 1:1000 dilution in 5% milk or 5% BSA at 4° C. Horseradish peroxidase-labeled (HRP) anti-rabbit or anti-mouse secondary antibodies (1:5,000 dilution) were added and incubated the next day for an additional 1 h. A ChemiDoc™ MP System imaging system from Bio-Rad (Hercules, CA, USA) was used for blots reading. Blots were used to obtain the protein bands, followed by quantification of the bands using image J software (NIH, Bethesda, MD, USA). All of the data were expressed as the ratio of β-actin or GAPDH.
# BT-20 cells = test: Hoechst 33258 assay and live cell morphology, BT-20
# Method: FIGS. 8A-8B: Representative images of morphological changes in BT-20 TNBC cells incubated with 0, 1, or 3 μM of TPH104 (FIG. 8A). The images were taken using an incuCyte live cell imaging instrument.
# To detect DNA fragmentation following apoptotic cell death, the Hoechst 33258 assay was performed. Briefly, TNBC cells were seeded in a 6-well plate at a density of 10,000 cells/well over 18-mm cover slips and incubated for 24 h. Following incubation, TPH104 (1, 2, or 5 μM), or vehicle were added for an additional 12 h. Subsequently, Hoechst 33258 (Sigma Aldrich, USA) was added to the cells at a concentration of 0.5 mg/mL and incubated for 30 minutes at 37° C. The cells were then washed 3× with phosphate buffered saline (PBS). Subsequently, the cover slips were mounted on a microscope glass/slide and allowed to dry for at least 2 h. Stained cells from each cover slip were captured from randomly selected fields under a fluorescent microscope (EVOS-FLC cell imaging system, Thermofisher scientific) to qualitatively determine the proportion of viable and apoptotic cells based on their relative fluorescence and nuclear fragmentation as previously described.
# BT-20 or MDA-MB468 cells = test: Cellular reactive oxygen species (ROS) detection assay (H2DCFDA); details: 1, 2, and 5 μM, 12 h
# Method: To assess the effect of TPH104 on the generation of ROS, a cell permeant, fluorogenic dye, 2′,7′-dichlorofluorescin diacetate, H2DCFDA, was used. A 5 mM stock solution was prepared using DMSO and PBS was used to prepare the 3 μM working solution of H2DCFDA. The TNBC cells were seeded in a 6-well plate as described in the cell cycle assay. After overnight incubation, cells were incubated with different TPH104 (1, 2, 5 μM) or vehicle for 12 h or with 2 μM of paclitaxel (positive control) for 2 h. The H2DCFDA dye (3 μM) was added to each well and the plate was incubated for an additional 30 minutes. Subsequently, cells were washed 3 times in PBS to remove excess H2DCFDA dye. Thereafter, cells from each well were captured from randomly selected fields using a fluorescent microscope (EVOS-FLC cell imaging system, Thermofisher scientific) at 40× to determine the 2′,7′-dichlorofluorescein (DCF) fluorescence intensity, which is positively correlated with the generation of ROS.
# [2] = test system: other normal cell lines (colon and kidney); test: MTT cytotoxicity, other normal cell lines
# Method: The following cancer and non-cancer cell lines were used in the initial cytotoxicity screening of the TPH104 compounds: triple negative breast cancer (TNBC): MDA-MB468, MDA-MB 231, and BT-20; non-TNBC: MCF-7 and ZR-75-1; ovarian: Ov2008; prostate: DU145; colon: HCT-116, S1, and LOVO; lung: H460; normal kidney: HEK-293; normal breast: HMEC; and normal colon: CRL-1459. All cells were cultured in Dulbecco's modified Eagle medium (DMEM), supplemented with 10% fetal bovine serum (FBS), and 1% penicillin/streptomycin (P/S). Cells were allowed to grow as adherent monolayers in T25 flasks in a humidified incubator with 5% CO2 at 37° C. for a period of 24 h, unless otherwise specified for certain experiments.
# The MTT assay was used to determine the cytotoxicity of all of the compounds. Briefly, in a 96-well flat-bottom cell culture plate, the cells were seeded at a density between 3-5×10^3 cells/well (180 μl in each well) and incubated for 24 h (a hemocytometer was used for cell counting). […] Subsequently, the plate was shaken for 2 minutes and the absorbance was measured at a wavelength of 570 nm using a SpectraMax iD3 Multi-Mode Microplate Reader (Molecular Devices, Sunnyvale, CA). The IC50 values of each compound were calculated and used to determine the selectivity ratio (IC50 in normal cells/IC50 in cancer cells) of each compound as previously described. […]
smiles,measurement,setting,value
COc1ccc(O)c(/C=N/Nc2ncnc3scc(-c4ccc(C)cc4)c23)c1 [TPH104],expression levels of caspase 3 and cleaved caspase 3,[1]; 2 μM or 5 μM,significantly decreased
same,expression levels of caspase 7 and caspase 9,"[1]; 0.5, 1, 2, and 5 μM",did not significantly alter
same,expression of Bcl2,"[1]; 0.5, 1, 2, and 5 μM",increased
same,expression of Bak,"[1]; 0.5, 1, 2, and 5 μM, BT-20 and MDA-MB468",not significantly altered
same,PARP cleavage,"[1]; 1, 2, and 5 μM",significantly cleaved
same,expression of cytochrome c,"[1]; 1, 2, and 5 μM",significantly decreased
same,expression of Bax,"[1]; 1, 2, and 5 μM, BT-20 and MDA-MB468",significantly decreased
same,cellular shrinkage,BT-20 cells; 1 μM and 3 μM,did not induce cellular shrinkage
same,rupture of the cellular membrane,BT-20 cells; 1 μM and 3 μM,did induce rupture
same,nuclear condensation,"BT-20 cells; 1, 2, and 5 μM, 12 h",did not show nuclear condensation
same,DCF fluorescence levels (ROS),BT-20 or MDA-MB468 cells,did not significantly alter
same,selectivity fold in comparison to other normal cell lines (colon and kidney),[2],up to 30 fold
